Experimental data taken from patent publication US9873702B2, “Heterocyclic compounds as biogenic amine transport modulators” (Southern Research Institute, priority 2014, dated 2018).
Where two headings read alike, the source gives them in different places.

Experiments:
[1] = target: T1, serotonin transporter (SERT) (Rattus norvegicus, UniProt P31652); test: Serotonin reuptake ([^3H]serotonin uptake) inhibition in rat brain synaptosomes; assay type: biochemical
T1 construct: Freshly removed whole brain minus cerebellum and caudate was homogenized; from tissue; host or cells: rat whole brain minus cerebellum and caudate, synaptosomes

[2] = target: norepinephrine transporter (NET) (Rattus norvegicus, UniProt Q9WTR4); test: Norepinephrine reuptake ([^3H]norepinephrine uptake) inhibition in rat brain synaptosomes
[3] = target: T2, dopamine transporter (DAT) (Rattus norvegicus, UniProt P23977); test: d-Amphetamine-induced DAT-mediated [^3H]DA release; assay type: biochemical; parameters: Freshly removed caudate was homogenized in 10% ice-cold sucrose; from tissue; host or cells: rat caudate synaptosomes; settings: Apparent Kc = [Blocker]/((EC50-2/EC50-1) − 1), negative when shifted EC50 is less than control
[4] = target: T2, dopamine transporter (DAT); test: Dopamine transporter-mediated [^3H]MPP^+ release, shift of D-amphetamine-induced release, rat caudate synaptosomes; assay type: biochemical; parameters: Freshly removed caudate was homogenized in 10% ice-cold sucrose; from tissue; host or cells: rat caudate synaptosomes
[5] = target: T2, dopamine transporter (DAT); test: Dopamine reuptake ([^3H]dopamine uptake) inhibition in rat brain synaptosomes
[6] = target: T2, dopamine transporter (DAT); test: Time course of [^3H]DA uptake/accumulation; assay type: biochemical; parameters: Freshly removed caudate was homogenized in 10% ice-cold sucrose; from tissue; host or cells: rat caudate synaptosomes
DAT = target: T3, DAT (Rattus norvegicus, UniProt P23977); test: Dopamine transporter binding, inhibition of [^3H]WIN35428 binding in rat caudate membranes; settings: inhibition of [3H]WIN35428 binding; mean ± S.D., n = 3
T3 construct: from tissue; host or cells: rat caudate membranes
How it was run: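 Rat caudate membranes in 50 mM sodium phosphate pH 7.4 with protease inhibitors, EDTA/EGTA and BSA were incubated with 1 nM [^3H]WIN35428 and test drug for 2 hours at 25° C. Filtration-retained tritium measured; three pooled experiments fit to dose-response to give Emax and EC50.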

T1 sequence (P31652 whole entry): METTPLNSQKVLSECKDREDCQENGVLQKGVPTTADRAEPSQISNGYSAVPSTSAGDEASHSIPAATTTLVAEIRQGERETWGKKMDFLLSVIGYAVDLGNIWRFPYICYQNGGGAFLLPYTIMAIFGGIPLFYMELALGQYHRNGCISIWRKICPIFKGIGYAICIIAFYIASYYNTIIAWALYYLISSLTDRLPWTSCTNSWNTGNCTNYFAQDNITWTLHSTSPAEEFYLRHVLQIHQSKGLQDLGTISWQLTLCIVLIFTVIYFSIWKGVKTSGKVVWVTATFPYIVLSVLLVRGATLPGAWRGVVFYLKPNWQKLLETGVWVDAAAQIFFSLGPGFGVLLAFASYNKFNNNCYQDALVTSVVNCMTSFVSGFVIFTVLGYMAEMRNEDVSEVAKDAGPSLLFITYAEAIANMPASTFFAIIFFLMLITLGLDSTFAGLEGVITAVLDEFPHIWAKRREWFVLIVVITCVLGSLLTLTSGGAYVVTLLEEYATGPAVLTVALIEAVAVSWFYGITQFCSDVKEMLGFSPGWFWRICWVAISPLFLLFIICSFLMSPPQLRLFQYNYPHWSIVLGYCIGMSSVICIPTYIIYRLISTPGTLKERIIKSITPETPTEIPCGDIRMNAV
T2 sequence (P23977 whole entry): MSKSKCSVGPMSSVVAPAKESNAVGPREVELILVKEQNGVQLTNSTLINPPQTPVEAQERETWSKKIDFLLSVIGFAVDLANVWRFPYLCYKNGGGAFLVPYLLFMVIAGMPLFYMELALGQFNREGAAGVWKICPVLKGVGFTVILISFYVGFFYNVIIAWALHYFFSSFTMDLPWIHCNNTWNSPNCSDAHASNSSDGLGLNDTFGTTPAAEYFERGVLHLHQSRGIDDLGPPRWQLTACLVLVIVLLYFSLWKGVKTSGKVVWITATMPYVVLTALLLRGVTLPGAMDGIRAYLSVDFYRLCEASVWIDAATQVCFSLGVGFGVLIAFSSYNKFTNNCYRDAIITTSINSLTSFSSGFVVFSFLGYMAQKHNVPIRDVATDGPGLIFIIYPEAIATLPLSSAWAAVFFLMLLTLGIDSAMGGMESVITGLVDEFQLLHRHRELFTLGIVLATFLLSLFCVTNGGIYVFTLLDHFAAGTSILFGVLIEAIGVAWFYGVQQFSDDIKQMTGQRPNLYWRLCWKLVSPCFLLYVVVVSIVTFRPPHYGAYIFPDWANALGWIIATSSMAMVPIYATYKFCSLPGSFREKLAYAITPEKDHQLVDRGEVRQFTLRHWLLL
T3 sequence (P23977 whole entry): as above

Emax ([1]; mean ± S.D., n = 3, read-out: SERT Uptake Emax): 52 ± 2%
IC50 ([1]; mean ± S.D., n = 3, read-out: SERT Uptake IC50): 0.023 ± 0.005 µM
efficacy of SERT uptake inhibition, in words ([1]; partial versus full inhibition): partial inhibitor
NET Uptake Emax ([2]; mean ± S.D., n = 3): 72 ± 4%
efficacy of NET uptake inhibition, in words ([2]; partial versus full inhibition): partial inhibitor
NE Uptake Emax (% I ± SD) ([2]; rat brain synaptosomes, 10 nM [^3H]norepinephrine, maximal inhibition from dose-response fit): 72 ± 4 % I
IC50 ([2]; read-out: NE Uptake EC50 (nM ± SD), rat brain synaptosomes, 10 nM [^3H]norepinephrine, 10 min, 37° C.): 52 ± 15 nM
IC50 ([2]; read-out: NET Uptake IC50, mean ± S.D., n = 3): 52 ± 15 nM
Apparent Kc [3]: -239 nM
D-Amphetamine Emax (% ± SD) ([4]; Emax of D-amphetamine for [^3H]MPP^+ release in presence of 50 nM test compound): 103 ± 3%
Apparent Kc ([4]; [3H]MPP+ release, Apparent Kc = [Blocker]/((EC50-2/EC50-1) − 1), negative when shifted EC50 is less than control): -368 nM
effect on the d-amphetamine Emax value, in words ([4]; d-amphetamine-induced DAT-mediated [^3H]MPP^+ release, blocking concentration ˜25 times IC50 for DAT uptake inhibition): decreased
IC50 ([5]; IC50 for DAT Uptake Inhibition, rounded value as listed in Table 10): 0.002 µM
IC50 ([5]; IC50 for inhibition of DAT uptake, [^3H]DA uptake, text of b784): 0.0023 ± 0.0004 µM
efficacy of [^3H]DA (DAT) uptake inhibition, in words ([5]; partial versus full inhibition): partial inhibitor
Emax ([5]; read-out: DAT Uptake Emax): 68 ± 2%
Emax ([5]; read-out: Emax for DAT Uptake Inhibition): 68%
Emax for DAT Uptake Inhibition ([5]; value as listed in Table 10): 68%
Emax at 0.001 µM ([6]; [^3H]DA accumulation, 1 nM compound 55, read-out: Inhibition of the Emax value (%)): 11%
Emax at 0.004 µM ([6]; [^3H]DA accumulation, 4 nM compound 55, read-out: Inhibition of the Emax value (%)): 29%
Emax at 0.008 µM ([6]; [^3H]DA accumulation, 8 nM compound 55, read-out: Inhibition of the Emax value (%)): 42%
Emax at 0.025 µM ([6]; [^3H]DA accumulation, 25 nM compound 55, read-out: Inhibition of the Emax value (%)): 57%
Emax ([6]; dose-dependent decrease of maximum [^3H]DA accumulation, read-out: Emax of decrease of the Emax of [^3H]DA accumulation): 69 ± 1%
Emax ([6]; maximum level of [^3H]DA accumulation, 1 nM compound 55): 89 ± 4
Emax ([6]; maximum level of [^3H]DA accumulation, 4 nM compound 55): 71 ± 2
Emax ([6]; maximum level of [^3H]DA accumulation, 8 nM compound 55): 58 ± 2
Emax ([6]; maximum level of [^3H]DA accumulation, 25 nM compound 55): 43 ± 3
DAT Binding εmax (DAT): Inactive
Structure (SMILES): c1ccc(C(CNc2nc(-c3ccc4nccn4c3)nc3ccccc23)c2ccccc2)cc1 [compound 55, N-(2,2-Diphenylethyl)-2-(Imidazo[1,2-a]Pyridin-6-yl)Quinazolin-4-Amine]
effect on the Emax of [^3H]DA accumulation, in words ([6]; time course of [^3H]DA uptake): decreased the Emax in a dose-dependent manner
